The source made the active and inactive calls. The rule behind the calls is not given here.
Experiments:
Hepatitis B virus [1] = test: Antiviral activity against HBV infected in human HepG2.2.15 cells assessed as inhibition of viral DNA replication at 4 uM pre-transfected cells with viral genome followed by compound treatment for 6 days with replacement of medium containing compound on every 2 days by RT-PCR analysis relative to control; type: functional; settings: for inhibition at 4 µM: HepG2.2.15, 144 h, time 6 day; for inhibition: time 6.0 day
Hepatitis B virus [2] = test: Antiviral activity against HBV infected in human HepG2.2.15 cells assessed as inhibition of viral DNA replication pre-transfected cells with viral genome followed by compound treatment for 6 days with replacement of medium containing compound on every 2 days by RT-PCR analysis; type: functional, organism-based
[3] = Selectivity index, ratio of CC50 for human HepG2.2.15 cells to IC50 for HBV infected in human HepG2.2.15 cells assessed as inhibition of viral DNA replication; type: toxicity, cell-based; settings: HepG2.2.15 cells, read-out: Ratio CC50/IC50
[4] = Cytotoxicity against human HepG2.2.15 cells incubated for 72 hrs by CCK8 assay; type: toxicity, cell-based, HepG2 2.2.15
[5] = Inhibition of HBsAg secretion in human HepG2.2.15 cells treated for 6 days with replacement of medium containing compound on every 2 days by […]; type: functional, cell-based; settings: HepG2 2.2.15
[6] = Selectivity index, ratio of CC50 for human HepG2.2.15 cells to IC50 for HBsAg secretion in human HepG2.2.15 cells; type: toxicity, cell-based; settings: for selectivity ratio: HepG2.2.15 cells, read-out: Ratio CC50/IC50

## Cc1cccc2c1N(C(=O)Cc1csc(COc3ccccc3)n1)CC2
Hepatitis B virus [1]
  inhibition at 4 µM: 13.9%

## O=C(Cc1csc(COc2ccccc2)n1)N1CCc2cccc(Br)c21
Hepatitis B virus [1]
  inhibition at 4 µM: 51.6%
Hepatitis B virus [2]
  IC50: 3.07 µM
[3]
  selectivity ratio: > 16.3
[4]
  CC50 at 72 h: > 50 µM
[5]
  IC50: > 50 µM
[6]
  Ratio CC50/IC50: Not Active

## O=C(Cc1csc(COc2ccccc2C(F)(F)F)n1)N1CCc2ccccc21
Hepatitis B virus [1]
  inhibition at 4 µM: 74.5%
Hepatitis B virus [2]
  IC50: 0.66 µM
[3]
  selectivity ratio: > 75.8
[4]
  CC50 at 72 h: > 50 µM
[5]
  IC50: > 50 µM
[6]
  Ratio CC50/IC50: Not Active

## O=C(Cc1csc(COc2cccc(Cl)c2)n1)N1CCc2ccccc21
Hepatitis B virus [1]
  inhibition: inactive

## O=C(Cc1csc(COc2ccccc2)n1)N1CCc2cccc(Cl)c21
Hepatitis B virus [1]
  inhibition at 4 µM: 65.9%
Hepatitis B virus [2]
  IC50: 1.01 µM
[3]
  selectivity ratio: > 49.5
[4]
  CC50 at 72 h: > 50 µM
[5]
  IC50: > 50 µM
[6]
  Ratio CC50/IC50: Not Active

## COc1cccc2c1N(C(=O)Cc1csc(COc3ccccc3)n1)CC2
Hepatitis B virus [1]
  inhibition at 4 µM: 41.3%

## O=C(Cc1csc(COc2ccccc2)n1)N1CCc2ccc(Br)cc21
Hepatitis B virus [1]
  inhibition at 4 µM: 14.1%

## O=C(Cc1csc(COc2ccccc2)n1)N1CCc2cc(F)ccc21
Hepatitis B virus [1]
  inhibition at 4 µM: 18.7%

## COc1ccccc1OCc1nc(CC(=O)N2CCc3ccccc32)cs1
Hepatitis B virus [1]
  inhibition at 4 µM: 45.5%

## COc1ccc2c(c1)CCN2C(=O)Cc1csc(COc2ccccc2)n1
Hepatitis B virus [1]
  inhibition at 4 µM: 57.7%
Hepatitis B virus [2]
  IC50: 2.84 µM
[3]
  selectivity ratio: > 17.6
[4]
  CC50 at 72 h: > 50 µM
[5]
  IC50: 39.1 µM
[6]
  selectivity ratio: > 1.28

## COc1cccc2c1CCN2C(=O)Cc1csc(COc2ccccc2)n1
Hepatitis B virus [1]
  inhibition at 4 µM: 4.26%

## O=C(Cc1csc(COc2ccc(C(F)(F)F)cc2)n1)N1CCc2ccccc21
Hepatitis B virus [1]
  inhibition at 4 µM: 70.2%
Hepatitis B virus [2]
  IC50: 0.65 µM
[3]
  selectivity ratio: > 76.9
[4]
  CC50 at 72 h: > 50 µM
[5]
  IC50: 39.5 µM
[6]
  selectivity ratio: > 1.27

## O=C(Cc1csc(COc2ccccc2F)n1)N1CCc2cc(Br)ccc21
Hepatitis B virus [1]
  inhibition at 4 µM: 72.6%
Hepatitis B virus [2]
  IC50: 0.43 µM
[3]
  selectivity ratio: > 116
[4]
  CC50 at 72 h: > 50 µM
[5]
  IC50: 44.7 µM
[6]
  selectivity ratio: > 0.89

## O=C(Cc1csc(COc2cccc(C(F)(F)F)c2)n1)N1CCc2ccccc21
Hepatitis B virus [1]
  inhibition at 4 µM: 50.9%
Hepatitis B virus [2]
  IC50: 3.51 µM
[3]
  selectivity ratio: > 14.2
[4]
  CC50 at 72 h: > 50 µM
[5]
  IC50: 41.6 µM
[6]
  selectivity ratio: > 1.2

## O=C(Cc1csc(COc2ccc(Br)cc2)n1)N1CCc2ccccc21
Hepatitis B virus [1]
  inhibition at 4 µM: 25.7%

## O=C(Cc1csc(COc2ccccc2Cl)n1)N1CCc2ccccc21
Hepatitis B virus [1]
  inhibition at 4 µM: 15.7%

## O=C(Cc1csc(COc2ccccc2)n1)N1CCc2c(Cl)cccc21
Hepatitis B virus [1]
  inhibition at 4 µM: 33.9%

## Cc1ccc2c(c1)CCN2C(=O)Cc1csc(COc2ccccc2)n1
Hepatitis B virus [1]
  inhibition at 4 µM: 40.5%

## Cc1ccc2c(c1)N(C(=O)Cc1csc(COc3ccccc3)n1)CC2
Hepatitis B virus [1]
  inhibition: inactive

## O=C(Cc1csc(COc2cccc(F)c2)n1)N1CCc2ccccc21
Hepatitis B virus [1]
  inhibition: inactive

## Cc1ccccc1OCc1nc(CC(=O)N2CCc3ccccc32)cs1
Hepatitis B virus [1]
  inhibition at 4 µM: 22.6%

## O=C(Cc1csc(COc2ccccc2Br)n1)N1CCc2ccccc21
Hepatitis B virus [1]
  inhibition: inactive

## O=C(Cc1csc(COc2ccccc2)n1)N1CCc2ccc(Cl)cc21
Hepatitis B virus [1]
  inhibition at 4 µM: 59.6%
Hepatitis B virus [2]
  IC50: 0.62 µM
[3]
  selectivity ratio: > 80.7
[4]
  CC50 at 72 h: > 50 µM
[5]
  IC50: 42.2 µM
[6]
  selectivity ratio: > 1.19

## O=C(Cc1csc(COc2ccccc2)n1)N1CCc2cccc(F)c21
Hepatitis B virus [1]
  inhibition at 4 µM: 34.6%

## O=C(Cc1csc(COc2ccc(F)cc2)n1)N1CCc2ccccc21
Hepatitis B virus [1]
  inhibition at 4 µM: 19.1%

## COc1cccc(OCc2nc(CC(=O)N3CCc4ccccc43)cs2)c1
Hepatitis B virus [1]
  inhibition at 4 µM: 8.33%

## O=C(Cc1csc(COc2ccccc2)n1)N1CCc2c(Br)cccc21
Hepatitis B virus [1]
  inhibition: inactive

## Cc1ccc(OCc2nc(CC(=O)N3CCc4ccccc43)cs2)cc1
Hepatitis B virus [1]
  inhibition at 4 µM: 39.4%

## COc1ccc(OCc2nc(CC(=O)N3CCc4ccccc43)cs2)cc1
Hepatitis B virus [1]
  inhibition at 4 µM: 34.5%

## COc1ccc2c(c1)N(C(=O)Cc1csc(COc3ccccc3)n1)CC2
Hepatitis B virus [1]
  inhibition at 4 µM: 18.6%

## O=C(Cc1csc(COc2ccccc2)n1)N1CCc2ccc(F)cc21
Hepatitis B virus [1]
  inhibition at 4 µM: 34.2%

Source: ChEMBL document CHEMBL5579825, “Exploration of 1-(indolin-1-yl)-2-(thiazol-2-yl)ethan-1-one derivatives as novel anti-HBV agent with potential TLR7-agonistic effect” (Eur J Med Chem, 2024)
